Results on 15 compounds are retold here after US8835462B2, “Macrocyclic picolinamides as fungicides” (Dow AgroSciences LLC, priority 2012, dated 2014).

What all share (type): in vivo
Assay [1] deals with Uncinula necator. As to the kind of experiment: Grape powdery mildew (UNCINE) fungicidal activity. To be noted: Erysiphe necator, 24 h, 1 Day Protectant, read-out: Disease Control UNCINE 1DP. The protocol: Technical grades of materials were dissolved in acetone, which were then mixed with nine volumes of water containing 110 ppm Triton X-100. The fungicide solutions were applied onto wheat seedlings using an automated booth sprayer to run-off. All sprayed plants were allowed to air dry prior to further handling. Wheat plants (variety Yuma) were grown from seed in a greenhouse in 50% mineral soil/50% soil-less Metro mix until the first leaf was fully emerged, with 7-10 seedlings per pot. These plants were inoculated with an aqueous spore suspension of Septoria tritici either prior to or after fungicide treatments. After inoculation the plants were kept in 100% relative humidity (one day in a dark dew chamber followed by two to three days in a lighted dew chamber at 20° C.) to permit spores to germinate and infect the leaf. The plants were then transferred to a greenhouse set at 20° C. for disease to develop. When disease symptoms were fully expressed on the 1st leaves of untreated plants, infection levels were assessed on a scale of 0 to 100 percent disease severity. Percent disease control was calculated using the ratio of disease severity on treated plants relative to untreated plants. Evaluation of Fungicidal Activity: Grape Powdery Mildew (Uncinula Necator; Bayer Code […]) Grape seedlings (variety Carignane) were grown in soil-less Metro mix, with one plant per pot, and used in the test when approximately one month old. Plants were inoculated 24 hr after fungicide treatment by shaking spores from infected leaves over test plants. Plants were maintained in a greenhouse set at 20° C. until disease was fully developed. Fungicide formulation, application and disease assessment on the sprayed leaves followed the procedures as described in the Example A.

In assay [2] the test system is Mycosphaerella graminicola; Anamorph: Septoria tritici. As to the kind of experiment: Leaf blotch of wheat (SEPTTR) fungicidal activity on wheat seedlings. The conditions noted are these: Zymoseptoria tritici. An outline of the steps:
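Compounds in acetone were diluted with nine volumes of water containing 110 ppm Triton X-100 and sprayed to run-off on Yuma wheat seedlings at first-leaf stage. Septoria tritici spores were inoculated before or after treatment, followed by dew chambers at 100% RH and 20 °C, then greenhouse at 20 °C. Severity (0–100%) was scored once untreated plants were fully diseased; control was calculated relative to untreated plants.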

Assay [3] deals with Puccinia triticina. As to the kind of experiment: Wheat brown rust (PUCCRT) fungicidal activity on wheat seedlings. The essentials:
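Compounds in acetone diluted with nine volumes water containing 110 ppm Triton X-100, sprayed to run-off on first-leaf Yuma wheat seedlings inoculated with P. triticina spores before or after treatment. Dark dew room 22° C, 100% RH overnight, then greenhouse 24° C; percent disease control from severity (0-100%) relative to untreated plants.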

The subject of assay [4] is Venturia inaequalis. As to the kind of experiment: Apple scab (VENTIN) fungicidal activity. The conditions noted are these: 24 h, 1 Day Protectant, read-out: Disease Control VENTIN 1DP. The protocol:
Technical grades of materials were dissolved in acetone, which were then mixed with nine volumes of water containing 110 ppm Triton X-100. The fungicide solutions were applied onto wheat seedlings using an automated booth sprayer to run-off. All sprayed plants were allowed to air dry prior to further handling. Wheat plants (variety Yuma) were grown from seed in a greenhouse in 50% mineral soil/50% soil-less Metro mix until the first leaf was fully emerged, with 7-10 seedlings per pot. These plants were inoculated with an aqueous spore suspension of Septoria tritici either prior to or after fungicide treatments. After inoculation the plants were kept in 100% relative humidity (one day in a dark dew chamber followed by two to three days in a lighted dew chamber at 20° C.) to permit spores to germinate and infect the leaf. The plants were then transferred to a greenhouse set at 20° C. for disease to develop. When disease symptoms were fully expressed on the 1st leaves of untreated plants, infection levels were assessed on a scale of 0 to 100 percent disease severity. Percent disease control was calculated using the ratio of disease severity on treated plants relative to untreated plants. Evaluation of Fungicidal Activity: Apple Scab (Venturia Inaequalis; Bayer Code […]) Apple seedlings (variety McIntosh) were grown in soil-less Metro mix, with one plant per pot. Seedlings with two expanding young leaves at the top (older leaves at bottom of the plants were trimmed) were used in the test. Plants were inoculated with a spore suspension of Venturia inaequalis 24 hr after fungicide treatment and kept in a 22° C. dew chamber with 100% RH for 48 hr, and then moved to a greenhouse set at 20° C. for disease to develop. Fungicide formulation, application and disease assessment on the sprayed leaves followed the procedures as described in the Example A.

[5] abbreviates: 24 h, 1 Day Protectant, read-out: Disease Control SEPTTR 1 DP.
The mark [6] stands for this setting: 72 h, 3 Day Curative, read-out: Disease Control SEPTTR 3 DC.
[7] abbreviates: 24 h, 1 Day Protectant, read-out: Disease Control PUCCRT 1 DP.
The mark [8] stands for this setting: 72 h, 3 Day Curative, read-out: Disease Control PUCCRT 3 DC.

Like-named read-outs stand apart in the source and are kept apart here.

`COc1ccnc(C(=O)N[C@H]2COC[C@H](Cc3ccccc3)[C@@H](OC)[C@H](C)OC2=O)c1OCOC(C)=O` [Compound 39]: the pest or weed control at 100 ppm in assay [1] is 0 to 80%; in assay [2] (setting [5]), 80 to 100%; in assay [2] (setting [6]), 80 to 100%; in assay [3] (setting [7]), 80 to 100%; in assay [3] (setting [8]), 80 to 100%; in assay [4] it was 0 to 80%.

For `COc1ccnc(C(=O)N[C@H]2COC[C@H](Cc3ccccc3)[C@@H](OCC(C)C)[C@H](C)OC2=O)c1OCOC(=O)C(C)C` [Compound 3], the pest or weed control at 100 ppm in assay [1] lay in the range of 80 to 100%; in assay [2] (setting [5]), 80 to 100%; in assay [2] (setting [6]) it was 80 to 100%; in assay [3] (setting [7]) it was 80 to 100%; in assay [3] (setting [8]), 80 to 100%; in assay [4], 0 to 80%.

Take `COc1ccnc(C(=O)N[C@H]2COC[C@H](Cc3ccccc3)[C@@H](OCC(C)C)[C@H](C)OC2=O)c1OC(C)=O` [Compound 9, 2-(((3S,7S,8R,9S)-7-benzyl-8-isobutoxy-9-methyl-2-oxo-1,5-dioxonan-3-yl)carbamoyl)-4-methoxypyridin-3-yl acetate]: the pest or weed control at 100 ppm in assay [1], in assay [2] (setting [5]), in assay [2] (setting [6]), in assay [3] (setting [7]), in assay [3] (setting [8]) and in assay [4] was 80 to 100% throughout.

On to `COc1ccnc(C(=O)N[C@H]2COC[C@H](Cc3ccccc3)[C@@H](OCCC(C)OC)[C@H](C)OC2=O)c1OCOC(C)=O` (stereo partly shown) [Compound 46], for which the pest or weed control at 100 ppm in assay [1] lay in the range of 0 to 80%; in assay [2] (setting [5]), 80 to 100%; in assay [2] (setting [6]), 80 to 100%; in assay [3] (setting [7]) it was 80 to 100%; in assay [3] (setting [8]) it was 80 to 100%; in assay [4] it was 80 to 100%.

Regarding `COc1ccnc(C(=O)N[C@H]2COC[C@H](Cc3ccccc3)[C@@H](OC3CCCC3)[C@H](C)OC2=O)c1OCOC(C)=O` [Compound 106], the pest or weed control at 100 ppm in assay [2] (setting [5]), in assay [2] (setting [6]), in assay [3] (setting [7]) and in assay [3] (setting [8]) was 80 to 100% each time.

On to `COc1ccnc(C(=O)N[C@H]2COC[C@H](Cc3ccccc3)[C@@H](OCCC(=O)N(C)C)[C@H](C)OC2=O)c1OCOC(C)=O` [Compound 15], for which the pest or weed control at 100 ppm in assay [1], in assay [2] (setting [5]), in assay [2] (setting [6]), in assay [3] (setting [7]), in assay [3] (setting [8]) and in assay [4] was 0 to 80% in each case.

On to `CCCO[C@@H]1[C@@H](Cc2ccccc2)COC[C@H](NC(=O)c2nccc(OC)c2OCOC(C)=O)C(=O)O[C@H]1C` [Compound 22], for which the pest or weed control at 100 ppm in assay [1], in assay [2] (setting [5]), in assay [2] (setting [6]), in assay [3] (setting [7]), in assay [3] (setting [8]) and in assay [4] was 80 to 100% throughout.

On to `CCCCCO[C@@H]1[C@@H](Cc2ccccc2)COC[C@H](NC(=O)c2nccc(OC)c2OCOC(C)=O)C(=O)O[C@H]1C` [Compound 26], for which the pest or weed control at 100 ppm in assay [1], in assay [2] (setting [5]), in assay [2] (setting [6]), in assay [3] (setting [7]), in assay [3] (setting [8]) and in assay [4] was 80 to 100% each time.

With `COc1ccnc(C(=O)N[C@H]2COC[C@H](Cc3ccccc3)[C@@H](OCC(C)C)[C@H](C)OC2=O)c1OCOC(C)=O` [Compound 8, (2-((3S,7S,8R,9S)-7-benzyl-8-isobutoxy-9-methyl-2-oxo-1,5-dioxonan-3-ylcarbamoyl)-4-methoxypyridin-3-yloxy)methyl acetate], the pest or weed control at 100 ppm in assay [1], in assay [2] (setting [5]), in assay [2] (setting [6]), in assay [3] (setting [7]), in assay [3] (setting [8]) and in assay [4] was 80 to 100% each time.

In the case of `COc1ccnc(C(=O)N[C@H]2COC[C@H](Cc3ccccc3)[C@@H](OC3CCCC3)[C@H](C)OC2=O)c1OCOC(=O)C(C)C` [Compound 108], the pest or weed control at 100 ppm in assay [1] was in the range of 80 to 100%; in assay [2] (setting [5]), 80 to 100%; in assay [2] (setting [6]), 0 to 80%; in assay [3] (setting [7]), 80 to 100%; in assay [3] (setting [8]) it was 80 to 100%; in assay [4] it was 80 to 100%.

As for `COc1ccnc(C(=O)N[C@H]2COC[C@H](Cc3ccccc3)[C@@H](OCC(C)C)[C@H](C)OC2=O)c1O` [Compound 2, N-((3S,7S,8R,9S)-7-benzyl-8-isobutoxy-9-methyl-2-oxo-1,5-dioxonan-3-yl)-3-hydroxy-4-methoxypicolinamide], the pest or weed control at 100 ppm in assay [1] fell in the range of 0 to 80%; in assay [2] (setting [5]), 80 to 100%; in assay [2] (setting [6]), 80 to 100%; in assay [3] (setting [7]) it was 80 to 100%; in assay [3] (setting [8]), 80 to 100%; in assay [4], 80 to 100%.

Regarding `COc1ccnc(C(=O)N[C@H]2COC[C@H](Cc3ccccc3)[C@@H](OC(=O)c3ccccc3)[C@H](C)OC2=O)c1OCOC(C)=O` [Compound 37], the pest or weed control at 100 ppm in assay [1] was 0 to 80%; in assay [2] (setting [5]) it was 80 to 100%; in assay [2] (setting [6]), 80 to 100%; in assay [3] (setting [7]), 80 to 100%; in assay [3] (setting [8]), 80 to 100%; in assay [4], 0 to 80%.

For the compound `COc1ccnc(C(=O)N[C@H]2COC[C@H](Cc3ccccc3)[C@@H](OCC(C)C)[C@H](C)OC2=O)c1OCOC(=O)C(C)(C)C` [Compound 7], the pest or weed control at 100 ppm in assay [1] is 80 to 100%; in assay [2] (setting [5]) it was 80 to 100%; in assay [2] (setting [6]) it was 80 to 100%; in assay [3] (setting [7]) it was 80 to 100%; in assay [3] (setting [8]) it was 80 to 100%; in assay [4] it was 0 to 80%.

Consider `COc1ccnc(C(=O)N[C@H]2COC[C@H](Cc3ccccc3)[C@@H](OCCCC(F)(F)F)[C@H](C)OC2=O)c1OCOC(C)=O` [Compound 23], for which the pest or weed control at 100 ppm in assay [1] fell in the range of 0 to 80%; in assay [2] (setting [5]), 80 to 100%; in assay [2] (setting [6]) it was 80 to 100%; in assay [3] (setting [7]), 80 to 100%; in assay [3] (setting [8]), 80 to 100%; in assay [4], 0 to 80%.

Consider `COc1ccnc(C(=O)N[C@H]2COC[C@H](Cc3ccccc3)[C@@H](OC(=O)C3CC3)[C@H](C)OC2=O)c1OCOC(C)=O` [Compound 38], for which the pest or weed control at 100 ppm in assay [1] fell in the range of 0 to 80%; in assay [2] (setting [5]), 80 to 100%; in assay [2] (setting [6]), 80 to 100%; in assay [3] (setting [7]), 80 to 100%; in assay [3] (setting [8]), 80 to 100%; in assay [4], 0 to 80%.
